The record followed here is PubChem BioAssay (NCI).

Experiment in all cases: NCI-60 cell line screen, 48 h
Assay [1] deals with IGROV1 ovarian.
In assay [2] the test system is CAKI-1 renal.
The test system of assay [3] is NCI-H226 lung.
In assay [4] the test system is HL-60(TB) leukemia.
Assay [5] relates to HCT-116 colon.
For assay [6], the system named is SK-MEL-5 melanoma.
Assay [7] relates to UACC-257 melanoma.
Assay [8] deals with PC-3 prostate.
Assay [9] has as its system HCC-2998 colon.
Assay [10] concerns DU-145 prostate.

SMILES strings stand for the structures.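 How tested: cells in 96-well plates exposed to compound for 48 hours at five concentrations. GI50 is the concentration that inhibits growth by half. TGI: total growth inhibition.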

On to `N#CC(NNC(=O)c1ccccc1O)c1ccccc1O` (stereo not given), for which the TGI is over 100 µM in assay [1]; 28.4 µM in [2]; 25.1 µM in assay [3]; over 100 µM in assay [4]; over 100 µM in assay [5]; 42.3 µM in assay [6]. In assay [7], this molecule came in with a TGI of 83 µM.

Turning to `O=C(O)OC12CCCCCC1C(=O)C1CCCCC12` (stereo not given), the TGI in assay [3], in assay [4], in assay [5], in [6] and in [7] was over 100 µM in each case.

`O=C(c1ccccc1)N1N=C(C(F)(F)F)CC1(O)C(F)(F)F` (stereo not given): the TGI in assay [8], in [3], in assay [9], in [4], in assay [10] and in assay [5] was over 100 µM throughout. The TGI in [7] is over 100 µM.

Regarding `CC(=O)OC(C(=O)NNC(=O)OC(C)(C)C)c1ccccc1` (stereo not given), the TGI in [8], in [1], in assay [2], in assay [3], in assay [9] and in assay [10] was over 100 µM in each case. The same molecule came in with a TGI in assay [6] of over 100 µM.

With `COC(=O)C(Cc1ccc2c(c1)OCO2)(NC(=O)c1ccccc1)P(=O)(OC)OC` (stereo not given), the TGI in assay [1], in assay [2], in assay [3], in assay [9], in [4] and in assay [5] was over 100 µM each time. Also, the TGI in [6] and in assay [7] was over 100 µM in each case.

Turning to `CCOC(=O)c1nc2ccccc2nc1Oc1ccc(F)cc1`, the TGI in [8], in assay [1], in assay [3], in assay [10], in assay [5] and in assay [6] was over 100 µM in each case. Further, the TGI in [7] is over 100 µM.

With `CCCCCCCCCCCCOC(=N)N1CCOCC1`, the TGI in assay [1] turned out to be 27.7 µM; in [2] it was 17.3 µM; in assay [3], 37.2 µM; in assay [9] it was 23.8 µM; in [4], 3.26 µM; in assay [5] it was 22.6 µM. In addition, the TGI was determined as 23.4 µM in assay [6] and 23.9 µM in assay [7].

For the molecule `COC(=O)C#CC1(O)C=CC(=O)C=C1`, the TGI in [8] was determined as 5.76 µM; in assay [1] it was 2.85 µM; in assay [3], 20.8 µM; in assay [9], 8.15 µM; in [10] it was 16.7 µM; in assay [7], 3.64 µM.

`Cc1cccc2c(=O)c3cccc(CC(=O)O)c3oc12`: the TGI in assay [8], in [1], in assay [2], in assay [3], in assay [9] and in [4] was over 100 µM throughout. Further, the TGI in [5], in assay [6] and in [7] was over 100 µM each time.

Turning to `O=[N+]([O-])c1cccc(-c2ccc([C@H]3CC(c4ccc(Cl)cc4)=NN3)o2)c1`, the TGI in [1] is over 100 µM; in assay [2], 60.5 µM; in assay [3] it was 45.8 µM; in [9], 38.1 µM; in [4], 24.1 µM; in assay [10], 50.1 µM. Besides, the TGI came to 31.2 µM in assay [5], 32.2 µM in assay [6] and 83.9 µM in [7].

Consider `CSc1cnc2ccccc2c1Sc1cn(C)c2ccccc2c1=O`, for which the TGI is over 100 µM in assay [1]; 73.8 µM in assay [3]; over 100 µM in assay [9]; over 100 µM in [4]; over 100 µM in assay [5]; over 100 µM in assay [6]. The molecule further yielded a TGI in assay [7] of over 100 µM.

Regarding `COc1cc(/C=C2\C(=O)Nc3ccc(O)cc32)cc(OC)c1OC`, the GI50 was 2.4 µM in assay [8]; 12.1 µM in assay [1]; 23.1 µM in assay [2]; 21.1 µM in assay [3]; 7.46 µM in [9]; 6.11 µM in assay [4]. Moreover, the GI50 in [6] is 6.31 µM; in assay [7], 8.48 µM. The TGI worked out at 19.1 µM in [8]; 35.7 µM in [1]; 83.1 µM in assay [2]; 54.4 µM in [3]; 20.9 µM in assay [9]; 40.7 µM in assay [4]. Besides, the values for the TGI in [6] and in assay [7] were 25.1 µM and 22.1 µM, respectively.

Consider `CCc1c(N=[N+]=[N-])c2ccccc2oc1=O`, for which the TGI in [8], in assay [1], in assay [3], in assay [9], in [4] and in assay [10] was over 100 µM each time. The TGI in [5] and in assay [7] was over 100 µM in each case.

For the molecule `COc1ccc(C2OC2C(=O)C23CC4CC(CC(C4)C2)C3)cc1` (stereo not given), the TGI is over 100 µM in [8]; over 100 µM in assay [1]; over 100 µM in assay [3]; over 100 µM in assay [9]; 97.2 µM in [4]; over 100 µM in assay [10]. Also, the TGI in assay [5], in assay [6] and in assay [7] was over 100 µM in each case.

Turning to `C/C(=C/C(=O)N(C)c1ccccc1Cl)O[Si](C(C)C)(C(C)C)C(C)C`, the TGI in [1] is 59.7 µM; in [2], over 100 µM; in assay [3], 34.5 µM; in assay [10] it was over 100 µM; in assay [5], 34.2 µM; in [6], 30.8 µM. The same molecule yielded a TGI in assay [7] of 66.4 µM.

In the case of `O[C@@H]1CCCCN1Cc1cc2cc3c(cc2c2cc(OCc4ccccc4)ccc12)OCO3`, the GI50 was 1.68 µM in assay [1]; 1.57 µM in assay [2]; 0.509 µM in assay [9]; 1.5 µM in assay [4]; 1.63 µM in assay [10]; 1.04 µM in assay [5]. The GI50 in assay [6] is 1.62 µM; in assay [7], 1.86 µM. Also, the TGI in assay [1] came to 3.11 µM; in [2], 2.91 µM; in assay [9], 1.83 µM; in assay [4] it was 3.57 µM; in [10] it was 3.02 µM; in assay [5], 2.21 µM. Moreover, the values for the TGI in [6] and in assay [7] were 3.09 µM and 3.66 µM, respectively.

Take `Cc1c(CNc2ccc(Cl)c(Cl)c2Cl)cnc2nc(N)nc(N)c12`: the TGI is over 49 µM in assay [8]; over 49.3 µM in assay [1]; over 100 µM in assay [2]; over 100 µM in [3]; over 100 µM in [9]; 15.3 µM in assay [4]. In addition, the values for the TGI in assay [5] and in assay [7] were 1.55 µM and over 55.4 µM, respectively.

Take `CC(C)OP(=O)(OC(C)C)C(=Nc1ccc(N=C(NNc2ccc([N+](=O)[O-])cc2)P(=O)(OC(C)C)OC(C)C)cc1)NNc1ccc([N+](=O)[O-])cc1`: the TGI in [1], in [2], in [3], in assay [4], in [5] and in assay [6] was over 100 µM each time. The TGI in [7] was over 100 µM.

`CCCCc1c2c([n+]([O-])c3c1CCCC3)CCCC2`: the TGI in assay [1], in assay [3], in assay [9], in assay [4], in [5] and in assay [6] was over 100 µM throughout. In assay [7], the TGI was over 100 µM.

On to `N#CC(C#N)=CNC(=S)Nc1ccc(S(=O)(=O)Nc2nccs2)cc1`, for which the TGI in assay [1], in assay [2], in [3], in [9], in assay [4] and in [10] was over 100 µM in each case. For the same molecule, the TGI in assay [5], in assay [6] and in assay [7] was over 100 µM each time.

Take `CC1CC(=O)C(CC(=O)O)[C@H]1C(C(=O)C(=O)Nc1cc(Cl)ccc1Cl)[N+](=O)[O-]` (stereo not given in full): the TGI in assay [1], in assay [2], in assay [3], in assay [9], in [4] and in assay [6] was over 100 µM in each case.

With `c1ccc2sc(C3(N4CCCCCC4)CCCCC3)cc2c1`, the TGI is over 100 µM in [1]; over 100 µM in [2]; 42.9 µM in assay [3]; 29.4 µM in assay [9]; 40.9 µM in assay [4]; over 100 µM in assay [10]. Further, the TGI turned out to be 52.1 µM in assay [5], 33.3 µM in assay [6] and 50 µM in assay [7].

Regarding `CC(C)C1CC(CO)(CNc2nc(N)nc(Cl)c2C=O)C1` (stereo not given), the TGI in assay [8] worked out at 5.16 µM; in assay [1], 3.52 µM; in assay [3], 26.3 µM; in [9] it was 4.32 µM; in assay [4] it was 3.92 µM; in assay [10], 29.1 µM. The TGI in assay [5] is 7.23 µM; in [7], 6.06 µM.
